The target in this assay is T1, 17-beta-hydroxysteroid dehydrogenase 13 (Homo sapiens, UniProt Q7Z5P4).
T1 sequence (Q7Z5P4 whole entry): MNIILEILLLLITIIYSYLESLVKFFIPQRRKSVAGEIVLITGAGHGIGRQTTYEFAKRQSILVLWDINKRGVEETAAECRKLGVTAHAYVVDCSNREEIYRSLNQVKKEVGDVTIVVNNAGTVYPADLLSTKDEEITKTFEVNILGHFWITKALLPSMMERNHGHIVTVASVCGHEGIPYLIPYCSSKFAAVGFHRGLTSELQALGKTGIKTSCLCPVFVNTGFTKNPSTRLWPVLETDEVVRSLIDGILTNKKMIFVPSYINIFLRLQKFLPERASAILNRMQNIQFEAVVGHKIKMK
Nature of the assay: In Vitro 17bHSD13 Enzyme Assay. The protocol:
Final assay conditions were 80 nM of 17bHSD13, 0.5 mM of NAD, 20 μM Estradiol and various concentrations of compound in buffer (5 mM EDTA (TEKNOVA E0306), 0.01% DDM (AFFYMETRIX D310) in 50 mM Tris-Cl, pH 7.4). After 2.5 h the reaction were stopped by addition of 20 μl of 0.6% Formic acid (MERCK 5.33002) and samples were analyzed using LC-MS/MS.SCIEX LC-MS/MS system: Sample was injected with CTC analytical injector, SHIMATZU LC pumps LC20 and analyzed on the SCIEX API 5000 LCMSMS system with the following settings. Samples were chromatographed on a WATERS, […], C8, 3.5 μm, 2.1×50 mm) column at constant flow rate of 0.5 mL/min. The mobile phases consist of A (water with 0.2% formic acid) and B (acetonitrile with 0.2% formic acid). The LC gradient profile is as follows: 50% B during 0 to 0.5 min, a linear increase to 100% B during 0.5 to 1 min, hold at 100% B during 1 to 1.6 min then back to 50% B from 1.6 to 2 min. The run time was 2 min with retention times of approximately 0.8 and 1.07 min for Estradiol and Estrone, respectively. Detection was performed on a API 5000 LC/MS/MS system with a triple quadrupole mass spectrometer, a TURBO V ion source, in multiple reaction monitoring (MRM) mode at positive polarity with APCI probe. The MRM pairs were m/z 273.1 to m/z 107.0 and m/z 271.3 to 107.0. for Estradiol and Estrone, respectively.

Our source for the IC50 values is BindingDB's records for patent US20250011311 (Astrazeneca, 2025).

The term IC50 denotes the concentration at which inhibition is half-maximal.

Compound `CN(C(=O)c1noc(-c2cc(F)c(F)c(O)c2F)n1)c1cccc(C#N)c1` [US20250011311, Example 63] had a half-inhibitory concentration (IC50) of 151 nM.
